Data on one molecule can be found in PMC6943552, “Glucosinolates in Sisymbrium officinale (L.) Scop.: Comparative Analysis in Cultivated and Wild Plants and in Vitro Assays with T2Rs Bitter Taste Receptors” (Molecules, 2019).

For orientation: EC50 means the concentration needed to bring the measured effect to its halfway point.

The target in the test is T1, T2R16 (hT2R16) (Homo sapiens, UniProt Q9NYV7).
T1 construct: gene TAS2R16; coding region with N-terminal rSST3 tag (45 N-terminal residues of rat somatostatin receptor subtype 3), pcDNA5, transient in HEK293 PEAKrapid Galpha16i/o44 cells
T1 sequence (Q9NYV7 1-291): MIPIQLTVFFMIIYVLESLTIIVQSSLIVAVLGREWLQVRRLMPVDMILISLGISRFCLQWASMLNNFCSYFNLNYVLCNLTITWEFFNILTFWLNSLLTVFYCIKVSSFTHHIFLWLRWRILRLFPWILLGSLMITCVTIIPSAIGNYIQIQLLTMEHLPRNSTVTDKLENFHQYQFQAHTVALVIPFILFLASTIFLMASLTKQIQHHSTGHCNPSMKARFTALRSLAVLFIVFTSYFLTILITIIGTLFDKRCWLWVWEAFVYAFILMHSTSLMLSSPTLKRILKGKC
Kind of test: FLIPR calcium imaging (Cal520-AM). Format: cell-based.

For the molecule `CC(C)/C(=N/OS(=O)(=O)O)S[C@@H]1O[C@H](CO)[C@@H](O)[C@H](O)[C@H]1O` [compound 3, glucoputranjivin], the 50% effective concentration (EC50) is greater than 1000 µM.
